Common to all, as to assay type: cell-based
One assay deals with T1, hASCT1 (Homo sapiens, UniProt P43007).
T1 construct: expressed in transfected cells; host or cells: HEK293 (ATCC CRL-11268), transient transfection
T1 sequence (P43007 1-532): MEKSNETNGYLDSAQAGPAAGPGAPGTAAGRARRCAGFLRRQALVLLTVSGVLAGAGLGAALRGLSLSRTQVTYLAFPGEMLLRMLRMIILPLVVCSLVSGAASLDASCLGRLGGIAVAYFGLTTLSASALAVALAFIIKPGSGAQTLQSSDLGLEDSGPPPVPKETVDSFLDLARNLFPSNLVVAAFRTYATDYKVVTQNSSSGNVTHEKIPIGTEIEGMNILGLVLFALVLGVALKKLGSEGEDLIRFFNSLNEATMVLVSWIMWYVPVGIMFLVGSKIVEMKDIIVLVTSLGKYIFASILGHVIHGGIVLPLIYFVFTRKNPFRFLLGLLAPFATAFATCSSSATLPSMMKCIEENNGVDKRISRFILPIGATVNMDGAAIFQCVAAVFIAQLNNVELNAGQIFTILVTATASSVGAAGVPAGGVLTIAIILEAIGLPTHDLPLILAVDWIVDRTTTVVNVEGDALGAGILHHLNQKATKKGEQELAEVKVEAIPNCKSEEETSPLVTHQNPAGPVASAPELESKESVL
The assay is described as follows: Electrophysiology (whole-cell current recording) of transfected HEK293 cells, hASCT1. The protocol:
(§1) Human embryonic kidney 293 (HEK293, ATCC CRL-11268) cells were cultured in DMEM media supplemented with 10% (v v) fetal bovine serum (FBS), 2 mM glutamine, 1% penicillin streptomycin solution, 1 mM sodium pyruvate and non-essential amino acids. Cells were maintained at 37° C. in a fully humidified atmosphere containing 5% CO2. rASCT2, hASCT2, hASCT1, EAAT1, EAAT2, EAAC1, EAAT5 and YFP complementary DNAs were each used to transiently transfect HEK293 using POLYPLUS Jet-prime transfection reagent. Cells were analyzed using electrophysiological techniques 24-40 hours after transfection.
(§2) Stock solutions of inhibitor was prepared in dimethyl sulfoxide (DMSO) up to 100 mM. Dilutions to working concentrations were made using external buffer. […] For rASCT2, hASCT2 and hASCT1, external buffer contained 140 mM NaCl, 2 mM MgCl2, 2 mM CaCl2), and 10 mM HEPES, pH 7.40 while internal pipette solution comprised of 130 mM NaSCN, 2 mM MgCl2, 10 mM EGTA, 10 mM HEPES and 10 mM alanine, pH 7.40. For specificity experiments with EAAT1, EAAT2, EAAC1 and EAAT5, internal solution contained 10 mM glutamate instead of alanine. Compounds were applied to HEK293 cells expressing DNA of interest suspended from a current recording electrode in whole cell configuration through a rapid solution exchange device. Cells are immersed in external buffer bath used to dissolve the inhibitors. The open pipette resistance was between 3 and 6 MΩ. Series resistance was not compensated in these experiments due to relatively small currents. Currents traces were recorded using an Adams and List EPC7 amplifier and digitized using a Molecular Devices Digidata A/D converter.
(§3) Linear and nonlinear curve fitting of the experimental data were analyzed using MicroCal Origin software. Nonlinear dose-response relationships were fitted with a Michaelis-Menten-like equation to obtain apparent Ki values in the absence of substrate (see TABLE 2 for Ki values). The figures show representative current traces and dose-response curves for hACST2 and rASCT2, used to obtain Ki values in TABLE 2 for compound SN 40. At least four experiments were performed with at least three different cells. Error bars in all graphs, e.g., in FIG. 1B and FIG. 1C and tables (Ki values) represent mean±SD.

For assay [1], the target named is T2, rASCT2 (Rattus norvegicus, UniProt D3ZJ25).
T2 construct: expressed in transfected cells; host or cells: HEK293 (ATCC CRL-11268), transient transfection
T2 sequence (D3ZJ25 1-555): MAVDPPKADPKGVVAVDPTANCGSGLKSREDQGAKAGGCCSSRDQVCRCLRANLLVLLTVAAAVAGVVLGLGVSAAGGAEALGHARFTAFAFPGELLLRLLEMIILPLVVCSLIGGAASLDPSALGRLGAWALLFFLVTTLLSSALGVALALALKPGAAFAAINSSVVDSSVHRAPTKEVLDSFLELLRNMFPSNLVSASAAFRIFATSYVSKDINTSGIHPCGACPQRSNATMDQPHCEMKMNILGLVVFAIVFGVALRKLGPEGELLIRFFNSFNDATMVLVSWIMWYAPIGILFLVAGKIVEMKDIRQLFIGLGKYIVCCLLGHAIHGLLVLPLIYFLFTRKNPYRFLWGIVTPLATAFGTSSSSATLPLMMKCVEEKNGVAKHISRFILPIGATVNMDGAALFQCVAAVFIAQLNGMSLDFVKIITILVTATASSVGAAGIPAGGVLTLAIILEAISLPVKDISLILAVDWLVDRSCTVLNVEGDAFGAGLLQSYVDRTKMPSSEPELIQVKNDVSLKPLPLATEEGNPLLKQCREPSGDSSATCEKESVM
The assay is described as follows: Electrophysiology (whole-cell current recording) of transfected HEK293 cells, rASCT2. The protocol:
as §1, §2, §3

The target in assay [2] is T3, hASCT2 (Homo sapiens, UniProt Q15758).
T3 construct: expressed in transfected cells; host or cells: HEK293 (ATCC CRL-11268), transient transfection
T3 sequence (Q15758 1-541): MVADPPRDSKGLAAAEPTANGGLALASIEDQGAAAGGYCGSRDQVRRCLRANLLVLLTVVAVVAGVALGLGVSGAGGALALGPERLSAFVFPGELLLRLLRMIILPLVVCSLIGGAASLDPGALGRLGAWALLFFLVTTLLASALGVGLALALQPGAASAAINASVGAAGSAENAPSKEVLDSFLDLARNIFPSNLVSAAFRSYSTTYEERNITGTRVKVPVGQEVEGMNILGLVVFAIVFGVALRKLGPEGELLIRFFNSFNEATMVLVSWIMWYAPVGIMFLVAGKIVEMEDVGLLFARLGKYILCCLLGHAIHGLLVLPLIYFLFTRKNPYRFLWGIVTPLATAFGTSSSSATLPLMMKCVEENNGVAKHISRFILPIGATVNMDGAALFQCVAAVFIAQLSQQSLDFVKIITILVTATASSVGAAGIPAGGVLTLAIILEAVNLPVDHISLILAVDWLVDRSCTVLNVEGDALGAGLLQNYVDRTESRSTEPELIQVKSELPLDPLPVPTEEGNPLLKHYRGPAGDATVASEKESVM
Nature of the assay: Electrophysiology (whole-cell current recording) of transfected HEK293 cells, hASCT2. The protocol: as §1, §2, §3

A further assay concerns the target T4, EAAT1 (Homo sapiens, UniProt P43003).
T4 construct: expressed in transfected cells; host or cells: HEK293 (ATCC CRL-11268), transient transfection
The assay is described as follows: Electrophysiology specificity experiment in transfected HEK293 cells, EAAT1. The conditions noted are these: apparent Ki, HEK293, internal solution 10 mM glutamate, mean ± SD. The protocol: as §1, §2, §3

The next assay concerns the target T5, EAAT2 (Homo sapiens, UniProt P43004).
T5 construct: expressed in transfected cells; host or cells: HEK293 (ATCC CRL-11268), transient transfection
The assay is described as follows: Electrophysiology specificity experiment in transfected HEK293 cells, EAAT2. To be noted: apparent Ki, HEK293, internal solution 10 mM glutamate, mean ± SD; read-out: Ki EAAT2. The protocol:
as §1, §2, §3

For a further assay, the target named is T6, EAAT5 (Homo sapiens, UniProt O00341).
T6 construct: expressed in transfected cells; host or cells: HEK293 (ATCC CRL-11268), transient transfection
Nature of the assay: Electrophysiology specificity experiment in transfected HEK293 cells, EAAT5. The conditions noted are these: apparent Ki, HEK293, internal solution 10 mM glutamate, mean ± SD. The protocol: as §1, §2, §3

For assay [3], the target named is T3, hASCT2. Nature of the assay: Competition experiment with alanine, hASCT2. To be noted: first entry of the cell; for Ki: read-out: Competition Expt (h/rASCT2 Ki): hASCT2 Ki.
The next assay deals with T7, EAAC1 (UniProt P51907).
T7 construct: Ki EAAC1; other: apparent Ki, HEK293, internal solution 10 mM glutamate, mean ± SD
T7 sequence (P51907 1-523): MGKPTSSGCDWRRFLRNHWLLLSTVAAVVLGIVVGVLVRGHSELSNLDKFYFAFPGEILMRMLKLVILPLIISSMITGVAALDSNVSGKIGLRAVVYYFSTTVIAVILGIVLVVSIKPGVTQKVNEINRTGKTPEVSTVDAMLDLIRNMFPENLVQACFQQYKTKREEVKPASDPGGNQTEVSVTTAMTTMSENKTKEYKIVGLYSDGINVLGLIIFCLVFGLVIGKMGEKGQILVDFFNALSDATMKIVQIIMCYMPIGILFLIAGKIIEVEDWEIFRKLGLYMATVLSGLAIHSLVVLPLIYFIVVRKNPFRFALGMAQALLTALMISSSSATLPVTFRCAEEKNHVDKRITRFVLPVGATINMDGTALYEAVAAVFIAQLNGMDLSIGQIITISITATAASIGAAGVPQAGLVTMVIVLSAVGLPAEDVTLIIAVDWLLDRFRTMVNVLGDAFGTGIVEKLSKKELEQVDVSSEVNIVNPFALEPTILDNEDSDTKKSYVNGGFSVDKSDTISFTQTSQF
Nature of the assay: Electrophysiology specificity experiment in transfected HEK293 cells, EAAC1. To be noted: apparent Ki, HEK293, internal solution 10 mM glutamate, mean ± SD. The protocol: Cells were maintained at 37° C. in a fully humidified atmosphere containing 5% CO2. rASCT2, hASCT2, hASCT1, EAAT1, EAAT2, EAAC1, EAAT5 and YFP complementary DNAs were each used to transiently transfect HEK293 using POLYPLUS Jet-prime transfection reagent. Cells were analyzed using electrophysiological techniques 24-40 hours after transfection.
as §2
Linear and nonlinear curve fitting of the experimental data were analyzed using MicroCal Origin software. Nonlinear dose-response relationships were fitted with a Michaelis-Menten-like equation to obtain apparent Ki values in the absence of substrate (see TABLE 2 for Ki values). […] At least four experiments were performed with at least three different cells. Error bars in all graphs, e.g., in FIG. 1B and FIG. 1C and tables (Ki values) represent mean±SD.

Assay [4] concerns the target T2, rASCT2. The assay is described as follows: Competition experiment with alanine, rASCT2. To be noted: 0.5 mM ala, second entry of the cell; for Competition Expt % block (given as a decimal): rASCT2: decimal fraction.
Where [5] appears, read: apparent Ki in the absence of substrate, HEK293, mean ± SD, read-out: Ki rASCT2.
The mark [6] stands for this setting: apparent Ki in the absence of substrate, HEK293, mean ± SD, read-out: Ki hASCT2.
Setting [7] is: Table 3, dihydroxyproline derivatives, read-out: Ki All DNA: hASCT2.

Structures are written as SMILES. Like-named read-outs stand apart in the source and are kept apart here.

T4 sequence (P43003 whole entry, species assumed): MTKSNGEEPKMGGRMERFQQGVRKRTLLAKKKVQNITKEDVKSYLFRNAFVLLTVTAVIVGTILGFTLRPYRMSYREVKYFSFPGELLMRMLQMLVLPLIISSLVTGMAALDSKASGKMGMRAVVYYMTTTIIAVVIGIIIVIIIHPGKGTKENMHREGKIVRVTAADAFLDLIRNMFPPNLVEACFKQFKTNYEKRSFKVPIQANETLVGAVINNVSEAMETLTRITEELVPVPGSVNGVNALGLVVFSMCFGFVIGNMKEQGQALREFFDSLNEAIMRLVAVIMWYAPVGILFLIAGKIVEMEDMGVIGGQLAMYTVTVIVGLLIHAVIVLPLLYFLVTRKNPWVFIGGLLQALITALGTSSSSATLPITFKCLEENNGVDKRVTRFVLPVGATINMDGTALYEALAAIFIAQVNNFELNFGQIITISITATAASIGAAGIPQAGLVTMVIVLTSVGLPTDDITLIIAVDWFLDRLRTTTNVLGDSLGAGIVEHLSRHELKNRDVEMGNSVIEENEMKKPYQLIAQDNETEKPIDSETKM
T6 sequence (O00341 whole entry, species assumed): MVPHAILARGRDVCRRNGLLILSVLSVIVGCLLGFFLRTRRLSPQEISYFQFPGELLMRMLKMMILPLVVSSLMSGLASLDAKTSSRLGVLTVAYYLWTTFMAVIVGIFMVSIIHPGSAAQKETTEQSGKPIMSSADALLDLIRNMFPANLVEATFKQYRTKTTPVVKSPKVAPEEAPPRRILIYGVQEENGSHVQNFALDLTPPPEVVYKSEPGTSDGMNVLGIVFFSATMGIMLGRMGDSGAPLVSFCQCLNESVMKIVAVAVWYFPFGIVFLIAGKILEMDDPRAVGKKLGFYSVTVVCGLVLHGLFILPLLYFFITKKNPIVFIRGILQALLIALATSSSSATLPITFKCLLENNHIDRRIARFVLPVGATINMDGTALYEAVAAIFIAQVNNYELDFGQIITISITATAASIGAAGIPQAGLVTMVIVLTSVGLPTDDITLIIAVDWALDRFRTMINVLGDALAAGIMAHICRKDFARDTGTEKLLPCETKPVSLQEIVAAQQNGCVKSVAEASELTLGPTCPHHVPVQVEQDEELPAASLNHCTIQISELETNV
T5 sequence (P43004 whole entry, species assumed): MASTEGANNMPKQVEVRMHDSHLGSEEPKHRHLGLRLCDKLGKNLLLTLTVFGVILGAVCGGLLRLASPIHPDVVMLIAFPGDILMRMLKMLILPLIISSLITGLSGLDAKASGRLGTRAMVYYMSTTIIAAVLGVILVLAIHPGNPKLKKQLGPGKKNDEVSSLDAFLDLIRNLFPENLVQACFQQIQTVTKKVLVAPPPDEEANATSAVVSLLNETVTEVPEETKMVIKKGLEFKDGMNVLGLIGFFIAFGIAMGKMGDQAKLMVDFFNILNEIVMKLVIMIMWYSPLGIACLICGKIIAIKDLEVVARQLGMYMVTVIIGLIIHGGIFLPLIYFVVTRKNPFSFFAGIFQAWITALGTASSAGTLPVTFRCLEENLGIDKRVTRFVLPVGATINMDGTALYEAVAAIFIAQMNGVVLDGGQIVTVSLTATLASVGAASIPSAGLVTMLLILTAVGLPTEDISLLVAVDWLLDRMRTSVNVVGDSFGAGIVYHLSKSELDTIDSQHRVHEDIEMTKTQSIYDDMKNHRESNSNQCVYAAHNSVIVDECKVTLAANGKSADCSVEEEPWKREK

With `O=C(O[C@@H]1CN[C@H](C(=O)O)C1)c1ccc(C(=O)c2ccccc2)cc1` [SN 12], the Ki on hASCT1 (apparent Ki in the absence of substrate, HEK293, mean ± SD, read-out: Ki hASCT1) was 6.86 ± 1.1 µM; at rASCT2 [1] (setting [5]), 6.66 ± 1.2 µM; at hASCT2 [2] (setting [6]) it was 21.4 ± 3.2 µM; on EAAT1 it was 21.2 ± 4.5 µM; on EAAT2, 15.4 ± 4.9 µM; on EAAT5, 13.8 ± 2.7 µM.
In the case of `O=C(OC[C@@]1(O)CN[C@H](C(=O)O)C1)c1ccc(-c2ccccc2)cc1` [SN57], the Ki on hASCT1 (Table 3, dihydroxyproline derivatives, read-out: Ki All DNA: hASCT1) worked out at 6.61 µM; on rASCT2 [1] (Table 3, dihydroxyproline derivatives, read-out: Ki All DNA: rASCT2) it was 3.87 µM; on hASCT2 [2] (setting [7]) it was 4.55 µM; on hASCT2 [3] (1 mM ala), 40 µM. The “Competition Expt % block (given as a decimal): hASCT2” value (“Competition Expt % block … hASCT2” below) on hASCT2 [3] (1 mM ala) is “full”.
Consider `O=C(O)[C@H]1NC[C@@H](NCc2ccc(-c3ccccc3)cc2)[C@@H]1O` [SN 50], for which the Ki at rASCT2 [1] (setting [5]) stood at 1.34 ± 0.1 µM; on hASCT2 [2] (setting [6]), 1.61 ± 0.2 µM; at EAAT1, 2.71 ± 0.7 µM; on EAAC1 it was 20.1 ± 6.2 µM.
Take `O=C(O[C@@]1(CO)CN[C@H](C(=O)O)C1)c1ccc(-c2ccccc2)cc1` [SN77]: the “Competition Expt % block … hASCT2” value on hASCT2 [3] (0.5 mM ala, decimal fraction) is 0.5. In addition, the figures for the Ki at hASCT2 [3] (0.5 mM ala) and at rASCT2 [4] (read-out: Competition Expt (h/rASCT2 Ki): rASCT2 Ki) were 20.3 µM and 12.9 µM, respectively. Moreover, the “Competition Expt % block (given as a decimal): rASCT2” value on rASCT2 [4] was found to be 0.5.
For the compound `O=C(OC[C@]1(O)CN[C@H](C(=O)O)C1)c1ccc(-c2ccc(C(F)(F)F)cc2)cc1` [SN67], at hASCT1 (Table 3, dihydroxyproline derivatives), the “Ki All DNA: hASCT1” value is on record as “NA, NC”. At hASCT2 [2] (setting [7]), the Ki was determined as 115 µM. Also, at hASCT2 [3] (0.5 mM ala, decimal fraction), the “Competition Expt % block … hASCT2” value stood at 0. Besides, the “Competition Expt % block (given as a decimal): rASCT2” value at rASCT2 [4] was found to be 0.

Values taken from patent US20230416199A1, “INHIBITORS OF AMINO ACID TRANSPORT” (ICAHN SCHOOL OF MEDICINE AT MOUNT SINAI, priority 2020, published 2023).
